US4670431A, “Beta-lactam antibacterial agents” (Beecham Group p.l.c., priority 1983, dated 1987)
Values after ≈ are worked out from the molar mass of the structure shown. Counter-ions that a name gives are not always drawn.

These compounds were tested on P. mirabilis 889 (assay: MIC against P. mirabilis 889). Details: not given.
Type: cell-based, Proteus mirabilis
Description: The antibiotic compounds of the present invention are active against a wide range of gram negative and gram positive organisms including E. coli such as, for example ESS, JT4, JT425 and NCTC 10418; Pseudomonas Spp. such Ps.aeruginosa for example 10662 and Dalgleish; Serratia marcescens US32; Klebsiella aerogenes A; Enterobacter cloacae N1; P.mirabilis such as, for example C977 and 889; P.morganii, P.rettgeri; B.subtilis; Staph aureus such as, for example Oxford and Russell; N.catarrhalis 1502; Strep faecalis I; β-Haemolytic Strep CN10. The MIC data included in the following examples is representative of the activity of the compounds of the present invention.

Row | Structure (SMILES) | MIC against P. mirabilis 889
1 | CCN1CCN(C(=O)N[C@@H](C(=O)N[C@]2(NC=O)C(=O)N3C(C(=O)O)=C(COC(C)=O)C[S+]([O-])[C@@H]32)c2ccc(OC(C)=O)c(OC(C)=O)c2)C(=O)C1=O (single isomer, unassigned) [Example 1 Isomer A, Sodium 7β-[D-2-[(4-ethyl-2,3-dioxopiperazin-1-yl)carbonylamino]-2-(3,4-diacetoxyphenyl)acetamido]-7α-formamidocephalosporanate-1-oxide] | 0.5 µg/mL
2 | CCN1CCN(C(=O)N[C@@H](C(=O)N[C@]2(NC=O)C(=O)N3C(C(=O)O)=C(COC(C)=O)C[S+]([O-])[C@@H]32)c2ccc(OC(C)=O)c(OC(C)=O)c2)C(=O)C1=O (single isomer, unassigned) [Example 1 Isomer B, Sodium 7β-[D-2-[(4-ethyl-2,3-dioxopiperazin-1-yl)carbonylamino]-2-(3,4-diacetoxyphenyl)acetamido]-7α-formamidocephalosporanate-1-oxide] | < 0.06 µg/mL
3 | CCN1CCN(C(=O)N[C@@H](C(=O)N[C@]2(NC=O)C(=O)N3C(C(=O)O)=C(COC(C)=O)C[S+]([O-])[C@@H]32)c2ccccc2)C(=O)C1=O (single isomer, unassigned) [Example 3 Isomer B, Sodium 7β-[D-2-[(4-Ethyl-2,3-dioxopiperazin-1-yl)carbonylamino]-2-phenylacetamido]-7α-formamidocephalosporanate-1-oxide] | 0.25 µg/mL
4 | CCN1CCN(C(=O)N[C@@H](C(=O)N[C@]2(NC=O)C(=O)N3C(C(=O)O)=C(CSc4nnnn4C)C[S+]([O-])[C@@H]32)c2ccc(OC(C)=O)c(OC(C)=O)c2)C(=O)C1=O (single isomer, unassigned) [Example 5 Isomer A, Sodium 7β-[D-2-(3,4-diacetoxyphenyl)-2-[(4-ethyl-2,3-dioxopiperazin-1-yl)carbonylamino]acetamido]-7α-formamido-3-[(1-methyl-1H-tetrazol-5-yl)thiomethyl]-ceph-3-em-4-carboxylate-1-oxide] | 0.5 µg/mL
5 | CCN1CCN(C(=O)N[C@@H](C(=O)N[C@]2(NC=O)C(=O)N3C(C(=O)O)=C(CSc4nnnn4C)C[S+]([O-])[C@@H]32)c2ccc(OC(C)=O)c(OC(C)=O)c2)C(=O)C1=O (single isomer, unassigned) [Example 5 Isomer B, Sodium 7β-[D-2-(3,4-diacetoxyphenyl)-2-[(4-ethyl-2,3-dioxopiperazin-1-yl)carbonylamino]acetamido]-7α-formamido-3-[(1-methyl-1H-tetrazol-5-yl)thiomethyl]-ceph-3-em-4-carboxylate-1-oxide] | 0.06 µg/mL
6 | CCN1CCN(C(=O)N[C@@H](C(=O)N[C@]2(NC=O)C(=O)N3[C@@H](C(=O)O)C(C)(C)[S+]([O-])[C@@H]32)c2ccc(OC(C)=O)c(OC(C)=O)c2)C(=O)C1=O (single isomer, unassigned; isomer a) [Example 17, Sodium 6β-[D-2-[(4-ethyl-2,3-dioxopiperazin-1-yl)carbonylamino]-2-(3,4-diacetoxyphenyl)acetamido]-6α-formamidopenicillanate-1-oxide, Isomer A] | 4.0 µg/mL
7 | CCN1CCN(C(=O)N[C@@H](C(=O)N[C@]2(NC=O)C(=O)N3[C@@H](C(=O)O)C(C)(C)[S+]([O-])[C@@H]32)c2ccc(OC(C)=O)c(OC(C)=O)c2)C(=O)C1=O (single isomer, unassigned; isomer b) [Example 18, Sodium 6β-[D-2-[(4-ethyl-2,3-dioxopiperazin-1-yl)carbonylamino]-2-(3,4-diacetoxyphenyl)acetamido]-6α-formamidopenicillanate-1-oxide, Isomer B] | 0.5 µg/mL

Same assay, conditions: Proteus mirabilis, 889

Row | Structure (SMILES) | MIC
8 | CCN1CCN(C(=O)N[C@@H](C(=O)N[C@]2(NC=O)C(=O)N3C(C(=O)O)=C(COC(C)=O)C[S+]([O-])[C@@H]32)c2ccccc2)C(=O)C1=O (single isomer, unassigned) [Example 3 Isomer A, Sodium 7β-[D-2-[(4-Ethyl-2,3-dioxopiperazin-1-yl)carbonylamino]-2-phenylacetamido]-7α-formamidocephalosporanate-1-oxide] | 0.25 µg/mL
9 | CCN1CCN(C(=O)N[C@@H](C(=O)N[C@]2(NC=O)C(=O)N3C(C(=O)O)=C(COC(C)=O)C[S@+]([O-])[C@@H]32)c2ccc(O)cc2)C(=O)C1=O (single isomer, unassigned) [Example 14 Isomer A, 7β-[D-2-[(4-Ethyl-2,3-dioxopiperazin-1-yl)carbonylamino]-2-(4-hydroxyphenyl)acetamido]-7α-formamidocephalosporanic acid 1-oxide, sodium salt] | 0.25 µg/mL
10 | CCN1CCN(C(=O)N[C@@H](C(=O)N[C@]2(NC=O)C(=O)N3C(C(=O)O)=C(COC(C)=O)C[S@@+]([O-])[C@@H]32)c2ccc(O)cc2)C(=O)C1=O (single isomer, unassigned) [Example 14 Isomer B, 7β-[D-2-[(4-Ethyl-2,3-dioxopiperazin-1-yl)carbonylamino]-2-(4-hydroxyphenyl)acetamido]-7α-formamidocephalosporanic acid 1-oxide, sodium salt] | 0.12 µg/mL
11 | CCN1CCN(C(=O)N[C@@H](C(=O)N[C@]2(NC=O)C(=O)N3C(C(=O)O)=C(CSc4nnnn4CC(=O)O)C[S@+]([O-])[C@@H]32)c2ccc(OC(C)=O)c(OC(C)=O)c2)C(=O)C1=O (single isomer, unassigned) [Example 15 Isomer A, 3-[(1-Carboxymethyl-1H-tetrazol-5-yl)thiomethyl]-7β-[D-2(3,4-diacetoxyphenyl)-2-[(4-ethyl-2,3-dioxopiperazin-1-yl)carbonylamino]acetamido]-7α-formamidoceph-3-em-4-carboxylic acid-1-oxide, disodium salt] | 0.5 µg/mL
12 | CCN1CCN(C(=O)N[C@@H](C(=O)N[C@]2(NC=O)C(=O)N3C(C(=O)O)=C(CSc4nnnn4CC(=O)O)C[S@@+]([O-])[C@@H]32)c2ccc(OC(C)=O)c(OC(C)=O)c2)C(=O)C1=O (single isomer, unassigned) [Example 15 Isomer B, 3-[(1-Carboxymethyl-1H-tetrazol-5-yl)thiomethyl]-7β-[D-2(3,4-diacetoxyphenyl)-2-[(4-ethyl-2,3-dioxopiperazin-1-yl)carbonylamino]acetamido]-7α-formamidoceph-3-em-4-carboxylic acid-1-oxide, disodium salt] | 0.25 µg/mL
13 | CCN1CCN(C(=O)N[C@@H](C(=O)N[C@]2(NC=O)C(=O)N3[C@@H](C(=O)O)C(C)(C)[S+]([O-])[C@@H]32)c2ccccc2)C(=O)C1=O (single isomer, unassigned) [Example 22 Isomer B, Sodium 6β-[D-2-[(4-ethyl-2,3-dioxopiperazin-1-yl)carbonylamino]-2-phenylacetamido]-6α-formamidopenicillanate-1-oxide] | 1 µg/mL
14 | CC1(C)[C@H](C(=O)O)N2C(=O)[C@@](NC=O)(NC(=O)[C@H](N)c3ccccc3)[C@H]2[S+]1[O-] (single isomer, unassigned; isomer b) [Example 23, 6β-(D-2-Amino-2-phenylacetamido)-6α-formamidopenicillanic acid-1-oxide, isomer B] | 32 µg/mL (≈ 78.3 µM)
15 | CC1(C)[C@H](C(=O)O)N2C(=O)[C@@](NC=O)(NC(=O)[C@H](NC(=O)N3CCN(S(C)(=O)=O)C3=O)c3ccc(O)cc3)[C@H]2[S+]1[O-] (single isomer, unassigned; isomer b) [Example 24, Sodium 6β-[D-2-(4-hydroxyphenyl)-2-[[3-(methylsulphonyl)-2-oxoimidazolidin-1-yl]carbonylamino]acetamido]-6α-formamidopenicillanate-1-oxide (isomer B)] | 2 µg/mL
16 | CCN1CCN(C(=O)N[C@@H](C(=O)N[C@]2(NC=O)C(=O)N3C(C(=O)O)=C(COC(C)=O)CS(=O)(=O)[C@@H]32)c2ccccc2)C(=O)C1=O [Example 2, Sodium 7β-[D,2-([4-Ethyl-2,3-dioxopiperazin-1-yl]carbonylamino)-2-phenylacetamido]-7α-formamidocephalosporanate-1,1-dioxide] | 8 µg/mL
17 | CCN1CCN(C(=O)N[C@@H](C(=O)N[C@]2(NC=O)C(=O)N3[C@@H](C(=O)O)C(C)(C)[S+]([O-])[C@@H]32)c2ccc(OC(C)=O)c(OC(C)=O)c2)C(=O)C1=O (stereo partly drawn) [Example 4, Sodium 6β-[D-2-[(4-ethyl-2,3-dioxopiperazin-1-yl)carbonylamino]-2-(3,4-diacetoxyphenyl)acetamido]-6α-formamidopenicillanate-1-oxide] | 0.12 µg/mL
18 | CCN1CCN(C(=O)N[C@@H](C(=O)N[C@]2(NC=O)C(=O)N3C(C(=O)[O-])=C(C[n+]4ccccc4)CS[C@@H]32)c2ccccc2)C(=O)C1=O [Example 7(c), 7β-[D-2-[(4-Ethyl-2.3-dioxopiperazin-1-yl)carbonylamino]-2-phenylacetamido]-7α-formamido-3-pyridiniummethyl-ceph-3-em-4-carboxylate] | 0.5 µg/mL (≈ 0.787 µM)
19 | CCN1CCN(C(=O)N[C@@H](C(=O)N[C@]2(NC=O)C(=O)N3C(C(=O)[O-])=C(C[n+]4ccccc4)C[S+]([O-])[C@@H]32)c2ccccc2)C(=O)C1=O (stereo partly drawn) [Example 7, 7β-[D-2-[(4-Ethyl-2,3-dioxopiperazin-1-yl)carbonylamino]-2-phenylacetamido]-7α-formamido-3-pyridiniummethyl-ceph-3-em-4-carboxylate-1-oxide] | 8 µg/mL (≈ 12.3 µM)
20 | CCN1CCN(C(=O)N[C@@H](C(=O)N[C@]2(NC=O)C(=O)N3C(C(=O)O)=C(CSc4nnnn4C)CS[C@@H]32)c2ccccc2)C(=O)C1=O [Example 8(b), 7β-[D-2-[(4-Ethyl-2,3-dioxopiperazin-1-yl)carbonylamino]-2-phenylacetamido]-7α-formamido-3-[(1-methyl-1H-tetrazol-5-yl)thiomethyl]ceph-3-em-4-carboxylic acid, sodium salt] | 0.125 µg/mL
